According to US6407311B1, “Methods for production of hybrid wheat” (Yeda Research & Development Co., Ltd., priority 1997, dated 2002):

Legend:
[1] = tested on: cultivars carrying the recessive allele su-B1 (e.g., Chinese Spring); conditions: Snape et al, 1991; cited from earlier work
[2] = tested on: lines of diploid Aegilops species; experiment: Reaction of lines of diploid Aegilops species to chlorotoluron; format: in vivo; conditions: most lines
Source text: (§1) Different cultivars of common wheat show different reaction to the herbicide chlorotoluron and to other phenyl derivatives of urea; several cultivars carrying the dominant allele Su-B1 (e.g., Cappelle Desprez) are resistant while others carrying the recessive allele su-B1 (e.g., Chinese Spring) are susceptible (Snape et al, 1991). The gene is located on the long arm of chromosome 6B (6BL) about 0.5 cM from the centromere. […] Since chromosome 6S^sL of Ae. searsii pairs almost regularly with 6S^lL of Ae. longissima, it is possible to transfer the resistance allele to the 6S^lL arm of the engineered chromosome EC-H (FIGS. 8a,b), thus producing the engineered chromosome of the EC-HR type. […] The presence of the chlorotoluron resistance allele on the engineered chromosome facilitates the selective killing, in each generation, of the male-sterile plants that lack the engineered chromosome while unaffecting the male-fertile maintainer plants (with the engineered chromosome) in the progeny of the selfed maintainer. This will assure, that in each generation, only the male-fertile offspring of the selfed maintainer, will grow.

[3] = tested on: plants with 2n=43 carrying the EC-HR1; experiment: Chlorotoluron on selfed progeny of EC-HR1 monosomic addition plants, 2n=43; format: in vivo, common wheat
Source text: (§2) To construct the engineered chromosome EC-HR1, the dominant chlorotoluron resistance allele Su-S^s1 is transferred from chromosome arm 6S^sL of a selected line of Ae. searsii into the 6S^lL arm of the engineered chromosome EC-H1. This is achieved by crossing a […] female parent derived from the male-fertile maintainer line in the common wheat cultivar Chinese Spring. This female parent is homozygous for the ms-B1, su-B1 and Ki-B1 alleles and has, as a monosomic addition, the engineered chromosome EC-H1 (4S^sS/6S^lL) carrying on its short arm the Ms-S^s1 and rht-S^s1 alleles and on its long arm the su-S1ki-S^l1-a alleles, with a line of the diploid species Ae. searsii carrying the chlorotoluron resistance allele on the long arm of chromosome 6S^s, i.e., on 6S^sL, as well as the Ms-S^s1 and rht-S^s1 alleles on 4S^sS. About 20% of the F1 progeny have the engineered chromosome EC-H1 and therefore contain 2n=29 chromosomes and can be distinguished from the other F1 plants having 2n=28. […] Pollinating the 2n=29 F1 plants once or twice with Chinese Spring, homozygous for su-B1 yields plants with 2n=43 (21″+1′) containing the desired engineered chromosome EC-HR1 as a monosomic addition.

[4] = tested on: plants with 2n=42 (lacking the EC-HR1); experiment: Chlorotoluron on selfed progeny of EC-HR1 monosomic addition plants, 2n=42; format: in vivo, common wheat
Source text: as §2

[5] = tested on: line of Ae. searsii carrying the chlorotoluron resistance allele Su-S^s1; experiment: Spraying chlorotoluron on the Ae. searsii line carrying Su-S^s1; format: in vivo, Aegilops searsii; conditions: sprayed at double the rate recommended at commercial fields
Source text: as §1, with “grow. […]” for “grow.”

[6] = tested on: plants of common wheat homozygous for the herbicide susceptibility allele su-B1; experiment: Spraying chlorotoluron on common wheat homozygous for su-B1; format: in vivo; conditions: sprayed at double the rate recommended at commercial fields
Source text: To test the effect of chlorotoluron on the various genotypes we sprayed this herbicide at a rate which is double of the recommended at commercial fields on plants of common wheat homozygous for the herbicide susceptibility allele su-B1 and the line of Ae. searsii carrying the chlorotoluron resistance allele Su-S^s1. All plants carrying the recessive su-B1 allele died within 10-14 days from spraying while those carrying the dominant Su-S^s1 allele survived.

[7] = tested on: cultivars carrying the dominant allele Su-B1 (e.g., Cappelle Desprez); conditions: Snape et al, 1991; cited from earlier work

SMILES: Cc1ccc(NC(=O)N(C)C)cc1Cl [chlorotoluron, 3-(3-chloro-p-tolyl)-1,1-dimethylurea]
- reaction to the herbicide [1]: susceptible
- reaction to the herbicide [2]: susceptible
- effect on plants carrying EC-HR1 [3]: unaffected
- effect on plants lacking the resistance allele [4]: kills all plants
- outcome of plants after spraying [5]: survived
- outcome of plants after spraying [6]: died
- time to death from spraying [6]: 10 to 14 days
- reaction to the herbicide [7]: resistant
